Assay results taken from patent US20080058373A1, “Compositions and Methods for Treating or Preventing Glaucoma or Progression Thereof” (priority 2006, published 2008).
Values joined by “and” are separate entries in the source; they are usually repeats but may differ in a detail not shown here. Equal values may be shown once. “Also recorded” adds a separate entry of the source.

Columns and labels:
Prostaglandin E2 (PGE2) = Prostaglandin E2 (PGE2) measurement in aqueous humor, rabbit paracentesis model; type: in vivo; conditions: second paracentesis, group mean
Procedure: (§1) Each rabbit was placed in a restraint device and tagged with the alphanumeric code. The formulations were instilled (50 μl) into the conjunctival sac of both eyes 180, 120, 90 and 30 min before the first paracentesis; then 15, 30, 90 min after the first paracentesis. To perform the first paracentesis the animals were anaesthetized by intravenous injection of 5 mg/kg Zoletil® (Virbac; 2.5 mg/kg tiletamine HCl and 2.5 mg/kg zolazepam HCl) and one drop of local anesthetic (Novesina®, Novartis) was administered to the eye. Anterior chamber paracentesis was performed with a 26 G needle attached to a tuberculin syringe; the needle was introduced into the anterior chamber through the cornea, taking care not to damage the tissues. Two hours after the first paracentesis, the animals were sacrificed with 0.4 ml Tanax® (Intervet International B.V.) and the second paracentesis was performed. About 100 μl of aqueous humor were removed at the second paracentesis. Aqueous humor was immediately split in four aliquots and stored at −80° C. until analysis. Then both eyes were enucleated and the iris-ciliary body was carefully excised, placed in polypropylene tubes, and stored at −80° C. until analysis.
For the quantitative determination of PGE2 in the aqueous humor we used the PGE2 Immunoassay kit (R&D Systems; Cat.No. KGE004; Lot.No. 240010). Eleven microliters or 16 μl of aqueous humor were diluted to 110 μl or 160 μl with the calibrator diluent solution provided with the kit. One hundred microliters of samples and of standards were load into a 96-well plate and recorded in a plate layout. Samples were treated following the assay procedure described in the kit. A microplate reader (GDV, Italy; model DV 990 B/V6) set at 450 nm (wavelength correction at 540 nm) was used for making the calibration and analyzing the samples.

[1] = system: primary human corneal epithelial cells; assay: IL-1β-stimulated cytokine production in primary HCECs (30-cytokine Luminex kit); conditions: for Concentration at which a significant inhibitory effect was observed on IL-6 / Concentration at which a significant inhibitory effect was observed on MCP-1 / Concentration at which a significant inhibitory effect was observed on TGF-α / Concentration at which a significant inhibitory effect was observed on TNF-α: 10 ng/ml IL-1β-stimulated HCECs
Procedure: Primary HCECs were seeded in 24-well plates. […] Each treatment was performed in triplicate. Media were collected and used for determination of cytokine content using a 30-cytokine Luminex kit. Cell viability was determined by alamarBlue assay (LP06013).
Median fluorescence intensity (MFI) was used to obtain the concentration of each cytokines in pg/ml based on the standard curve of each cytokine assayed by Luminex. The linear range of the standard curve for each cytokine was used for determination of cytokine concentration. Duplicate values for each sample were averaged. Data were expressed as mean±SD. Statistical analysis was performed using one-way ANOVA-Dunnett's test, and P<0.05 was considered statistically significant.

[2] = system: rabbit eye (anterior chamber paracentesis); assay: Clinical evaluation by slit lamp (clinical score), rabbit paracentesis model; type: in vivo; design: key to Clinical Score −180 min / Clinical Score −5 min / Clinical Score +115 min: 0=normal; 1=discrete dilatation of iris and conjunctival vessels; 2=moderate dilatation of iris and conjunctival vessels; 3=intense iridal hyperemia with flare in the anterior chamber; 4=intense iridal hyperemia with flare in the anterior chamber and presence of fibrinous exudates; conditions: for Clinical Score −5 min: 5 min before the first paracentesis; for Clinical Score −5 min / Clinical Score +115 min / Clinical Score −180 min: single eyes; for Clinical Score +115 min: 5 min before the second paracentesis; for Percentage of eyes with clinical score 1 / Percentage of eyes with clinical score 3 / Percentage of eyes with clinical score 0 / Percentage of eyes with clinical score 2: N=8 eyes
protein in aqueous humor = assay: Protein measurement in aqueous humor, rabbit paracentesis model; type: in vivo; conditions: for Protein levels in aqueous humor (raw data): samples collected at the second paracentesis, single eyes; for Protein levels in aqueous humor, Mean: second paracentesis, group mean
Procedure: as §1
For protein concentration determination in the aqueous humor we used the Protein Quantification Kit (Fluka; Cat.No. 77371; Lot.No. 1303129). Five microliters of aqueous humor were diluted to 100 μl with water. Twenty microliters of samples and of standards were load into a 96-well plate and recorded in a plate layout. Samples were treated following the assay procedure described in the kit. A microplate reader (GDV, Italy; model DV 990 B/V6) set at 670 nm was used for making the calibration and analyzing the samples.

[3] = system: rabbit eye (anterior chamber paracentesis); assay: Rabbit paracentesis model of anterior-segment inflammation (overall conclusion); type: in vivo; conditions: 0.1%, 0.5% and 1% topical formulations
From the text: Inflammatory processes are multidimensional in origin, and are characterized by complex cellular and molecular events involving numerous components all of which have not been identified. Prostaglandins are among these mediators and play an important role in certain forms of ocular inflammation. Paracentesis of the anterior chamber in the rabbit eye induces inflammatory reaction due to the disruption of the blood-aqueous barrier (“BAB”), which is mediated, at least in part, by prostaglandin E2 [References 1-3 below]. Intraocular or topical administration of PGE2 disrupts the BAB. [Reference 4, below] The treatment schedule adopted in this study was similar to the clinical NSAIDs (Ocufen) treatment schedule used by surgeons for patients before cataract surgery.
Each rabbit was placed in a restraint device and tagged with the alphanumeric code. The formulations were instilled (50 μl) into the conjunctival sac of both eyes 180, 120, 90 and 30 min before the first paracentesis; then 15, 30, 90 min after the first paracentesis. […]
Pupillary diameter, PGE2, protein, PMN, and MPO were expressed as mean±SEM. […] Clinical score was expressed as % of eyes and the statistical analysis was performed using Kruskal-Wallis followed by a Dunn post hoc test. […]

[4] = IL-1β-stimulated HCECs, 18 h, P<0.05

SMILES: C[C@@H]1C[C@H]2[C@@H]3CCC4=CC(=O)C=C[C@]4(C)[C@@]3(F)[C@@H](O)C[C@]2(C)[C@@]1(O)C(=O)CO [dexamethasone, reference compound]
- Levels of PGE2 in aqueous humor, Mean (Prostaglandin E2 (PGE2); 0.1% topical): 2.263 ng/mL
- Concentration at which a significant inhibitory effect was observed on IL-6 ([1]; 18 h, P<0.05): 1 nM
- Concentration at which a significant inhibitory effect was observed on MCP-1 ([1]; 18 h, P<0.05): 10 nM
- Concentration at which a significant inhibitory effect was observed on TGF-α ([1]; 18 h, P<0.05): 10 nM
- Concentration at which a significant inhibitory effect was observed on TNF-α ([1]; 18 h, P<0.05): 10 nM
- Concentration at which a significant inhibitory effect was observed on RANTES [1, 4]: 1 µM
- Clinical Score −5 min ([2]; 0.1% topical, listed as Dex): 0 and 1
- Clinical Score +115 min ([2]; 0.1% topical, listed as Dex): 1 and 3
- Percentage of eyes with clinical score 1 ([2]; 0.1% topical, +115 min): 75%
- Percentage of eyes with clinical score 3 ([2]; 0.1% topical, +115 min): 25%
- Percentage of eyes with clinical score 0 ([2]; 0.1% topical, −5 min): 75%
- Percentage of eyes with clinical score 1 ([2]; 0.1% topical, −5 min): 25%
- Percentage of eyes with clinical score 0 ([2]; 0.1% topical, −180 min (basal)): 100%
- Clinical Score −180 min ([2]; 0.1% topical, −180 min (basal)): 0
- Protein levels in aqueous humor (raw data) (protein in aqueous humor; 0.1% topical, listed as Dex): 31.31 mg/mL and 31.81 mg/mL and 35.95 mg/mL and 37.15 mg/mL and 32.12 mg/mL and 32.40 mg/mL
- Protein levels in aqueous humor, Mean (protein in aqueous humor; 0.1% topical): 33.457 mg/mL

SMILES: Cc1ccc2c(NCC(O)(CC(C)(C)c3cc(F)cc4c3OCC4)C(F)(F)F)cccc2n1 (stereo not shown)
- Anti-inflammatory activity in the rabbit paracentesis model (preliminary conclusion) [3]: active in this model; also recorded: as effective an anti-inflammatory drug as some of the commonly accepted prior-art steroids or NSAID
- Levels of PGE2 in aqueous humor, Mean (Prostaglandin E2 (PGE2); 0.1% topical): 1.452 ng/mL
- Levels of PGE2 in aqueous humor, Mean (Prostaglandin E2 (PGE2); 0.5% topical): 1.384 ng/mL
- Levels of PGE2 in aqueous humor, Mean (Prostaglandin E2 (PGE2); 1% topical): 2.168 ng/mL
- Concentration at which a significant inhibitory effect was observed on IL-6 ([1]; 18 h, P<0.05): 1 nM
- Concentration at which a significant inhibitory effect was observed on MCP-1 ([1]; 18 h, P<0.05): 10 nM
- Concentration at which a significant inhibitory effect was observed on TGF-α ([1]; 18 h, P<0.05): 10 nM
- Concentration at which a significant inhibitory effect was observed on TNF-α ([1]; 18 h, P<0.05): 10 nM
- Potency versus dexamethasone for inhibition of G-CSF production ([1]; IL-1β-stimulated HCECs): more potent than dexamethasone
- Potency versus dexamethasone for inhibition of GM-CSF, IL-8 and RANTES production ([1]; IL-1β-stimulated HCECs): somewhat less potent than dexamethasone
- Potency versus dexamethasone for inhibition of IL-6, IL-7, TGF-α, TNF-α, VGEF and MCP-1 production ([1]; IL-1β-stimulated HCECs): comparable potency
- Inhibition of IL-1β-stimulated production of 6 cytokines (IL-6, IL-7, MCP-1, TGF-α, TNF-α and VEGF) ([1]; IL-1β-stimulated HCECs, 18 h): significantly inhibited
- Concentration at which a significant inhibitory effect was observed on G-CSF [1, 4]: 10 µg/mL
- Concentration at which a significant inhibitory effect was observed on GM-CSF [1, 4]: 10 nM
- Concentration at which a significant inhibitory effect was observed on RANTES [1, 4]: no significant effect
- Clinical Score −5 min ([2]; 0.1% topical): 0
- Clinical Score +115 min ([2]; 0.1% topical, listed as BOL): 2 and 3
- Percentage of eyes with clinical score 2 ([2]; 0.1% topical, +115 min): 75%
- Percentage of eyes with clinical score 3 ([2]; 0.1% topical, +115 min): 25%
- Percentage of eyes with clinical score 0 ([2]; 0.1% topical, −5 min): 100%
- Percentage of eyes with clinical score 0 ([2]; 0.1% topical, −180 min (basal)): 100%
- Clinical Score −180 min ([2]; 0.1% topical, −180 min (basal)): 0
- Clinical Score −5 min ([2]; 0.5% topical): 0
- Clinical Score +115 min ([2]; 0.5% topical, listed as BOL): 2 and 1
- Percentage of eyes with clinical score 1 ([2]; 0.5% topical, +115 min): 37.5%
- Percentage of eyes with clinical score 2 ([2]; 0.5% topical, +115 min): 62.5%
- Percentage of eyes with clinical score 0 ([2]; 0.5% topical, −5 min): 100%
- Percentage of eyes with clinical score 0 ([2]; 0.5% topical, −180 min (basal)): 100%
- Clinical Score −180 min ([2]; 0.5% topical, −180 min (basal)): 0
- Clinical Score −5 min ([2]; 1% topical): 0
- Clinical Score +115 min ([2]; 1% topical): 2
- Percentage of eyes with clinical score 2 ([2]; 1% topical, +115 min): 100%
- Percentage of eyes with clinical score 0 ([2]; 1% topical, −5 min): 100%
- Percentage of eyes with clinical score 0 ([2]; 1% topical, −180 min (basal)): 100%
- Clinical Score −180 min ([2]; 1% topical, −180 min (basal)): 0
- Protein levels in aqueous humor, Mean (protein in aqueous humor; 0.1% topical): 33.667 mg/mL
- Protein levels in aqueous humor (raw data) (protein in aqueous humor; 0.5% topical, listed as BOL): 33.98 mg/mL and 33.65 mg/mL and 19.99 mg/mL and 27.11 mg/mL and 19.72 mg/mL and 36.35 mg/mL and 27.71 mg/mL and 32.24 mg/mL
- Protein levels in aqueous humor, Mean (protein in aqueous humor; 0.5% topical): 28.844 mg/mL
- Protein levels in aqueous humor, Mean (protein in aqueous humor; 1% topical): 21.435 mg/mL
